Measurements taken from patent US20260209263A1, “UNNATURAL SUGAR, AND SYNTHESIS METHOD THEREFOR AND USE THEREOF” (HEFEI LINXCELL BIOTECHNOLOGIES CO., LTD, priority 2022, published 2026).

How the values were obtained:
HeLa cells = experiment: Metabolic glycan labeling in living HeLa cells, Cy5 in-gel fluorescence; type: cell-based; details: for labeling efficiency compared with 1,6-Pr2GalNAz or 1,6-Pr2ManNAz: 200 μM; for labeling efficiency compared with GalNAz or ManNAz: 200 μM of 1,6-bis-acylated sugar vs 2 mM of sugar without protecting groups
Experimental: In order to verify the metabolic labeling effect of the above-mentioned 1,6-bis-acylated unnatural sugars in living cells, HeLa cells were metabolically labeled with the above-mentioned different compounds. The specific steps are as follows:
200 μM of 1,6-bis-acylated unnatural sugar and 2 mM of sugar without protecting groups were added to a culture medium of HeLa cells for culture, and then bioorthogonal reaction was carried out with Cy5 fluorescently labeled substances, and in-gel fluorescence detection was performed on the differently treated HeLa cells. The detection results are shown in FIGS. 2A-2C (CBB in FIGS. 3A-3D represents Coomassie Brilliant Blue staining to show the loading amount control).

[1] = test system: MCF7-AGX2F383G-T2A-GFP cells; experiment: Metabolic glycan labeling in MCF-7 cells overexpressing mutant enzyme AGX2F383G; type: cell-based
Excerpt: (§1) The above data well illustrate that 1,6-bis-acylated azidosugars can be metabolically labeled at much lower concentrations than unprotected azidosugars.

[2] = test system: MCF-7 (MCF7-T2A-GFP) cells; experiment: Metabolic glycan labeling in MCF-7 cells expressing GFP; type: cell-based
Excerpt: as §1

B6D2F1/J mice = experiment: Metabolic labeling in vivo in mice, in-gel fluorescence of organ homogenates; details: intraperitoneal, 500 mg/kg every day for 3 or 7 consecutive days; heart, lung, spleen
Experimental: In the in vivo mouse experiment, B6D2F1/J mice were intraperitoneally injected with 1,6-Pr2GalNAz or 1,6-Pr2ManNAz (both at a concentration of 500 mg/kg) every day for 3 or 7 consecutive days. The mice were euthanized on the 4th or 8th day, and different organs were selected for homogenization. The azide-modified glycoproteins were click-labeled and separated by SDS-PAGE.

SMILES	labeling efficiency compared with 1,6-Pr2GalNAz or 1,6-Pr2ManNAz (HeLa cells)	in vivo metabolic labeling of glycoproteins from organs (B6D2F1/J mice)	labeling efficiency compared with GalNAz or ManNAz (HeLa cells)	further results
CC(=O)OCC1OC(OC(C)=O)C(NC(=O)CN=[N+]=[N-])C(O)C1O (centres unmarked) [1,6-Ac2GalNAz]	much lower	–	–	–
CCCC(=O)OCC1OC(OC(=O)CCC)C(NC(=O)CN=[N+]=[N-])C(O)C1O (centres unmarked) [1,6-Bu2GalNAz]	comparable	–	–	–
[N-]=[N+]=NCC(=O)N[C@H]1C(O)O[C@H](CO)[C@@H](O)[C@@H]1O (some centres unmarked) [GlcNAz]	–	–	–	metabolic labeling [1]: produced obvious labeling; metabolic labeling [2]: neither GlcNAz nor 1,6-bis-acylated GlcNAz treatment resulted in obvious labeling
CCC(=O)OC[C@H]1OC(OC(=O)CC)[C@H](NC(=O)CN=[N+]=[N-])[C@@H](O)[C@H]1O (some centres unmarked) [1,6-Pr2GalNAz]	–	glycoproteins from the heart, lung, and spleen could be well labeled	close to or slightly stronger than 2 mM of sugar without protecting groups	–
CCC(=O)OCC1OC(OC(=O)CC)C(NC(=O)CN=[N+]=[N-])C(O)C1O (centres unmarked) [1,6-Pr2ManNAz]	–	glycoproteins from the heart, lung, and spleen could be well labeled	close to or slightly stronger than 2 mM of sugar without protecting groups	–
